{"source": "patent EP0144441A1", "about": "“BLOOD PRESSURE-CONTROLLING AGENT” (HAYASHIBARA BIOCHEMICAL LABORATORIES, INC., priority 1983, dated 1984)", "key": {"Acute toxicity": {"test": "Acute toxicity", "conditions": "rat, in vivo, male Wistar rats, suspended in 5 % gum arabic, observed 7 days, method of Van der Warden", "method": "Eight male Wistar rats (weighing about 150 g) per group were used. Platonin suspended in 5 % gum arabic was administered intraperitonealy, or orally using a gastric tube. […] The LD50 value was calculated by the method of Van der Warden."}, "[1]": {"system": "normal rats (Wistar-Kyoto)", "test": "Effect on blood pressure in normal rats (also heart rate, body weight)", "format": "in vivo", "method": "Male Wistar-Kyoto rats eight weeks old (weighing about 190 g) were used in groups of 5 animals. Platonin was orally administered at a dose of 1 µg/kg three times a week for 8 weeks. A physiological saline alone was administered to a control group in the same manner as above. During the administration period, blood pressure, heart rate and body weight were measured at timed intervals. Blood pressure, systolic, was bloodlessly measured in the caudal artery using a rat blood pressure manometer (made by Narco Biosystems Co.), and heart rate using a polygraph (made by Nippon Kohden Kabushiki Kaisha)."}, "[2]": {"system": "spontaneously hypertensive rats", "test": "Effect on spontaneously hypertensive rats (blood pressure, heart rate, body weight)", "format": "in vivo", "conditions": "for antihypertensive effect: separate experiment (not illustrated)", "method": "Male spontaneously hypertensive rats (hereinafter referred to as SHR, weighing about 190 g) eight weeks old were used in groups of 5 animals. Platonin was orally adminstered at a dose of 1 µg/kg three times a week for 13 weeks. A physiological saline alone was adminstered to a control group in the same manner as above. During the administration period, blood pressure, heart rate and body weight were measured at timed intervals.\nBlood pressure, systolic, was bloodlessly measured in the caudal artery using a rat blood pressure manometer (made by Narco Biosystems Co.), and heart rate using a polygraph (made by Nippon Kohden Kabushiki Kaisha)."}, "[3]": {"conditions": "normal rats, in comparison with the control group"}}, "note": "Like-named read-outs stand apart in the source and are kept apart here."}
{"molecule": "CCCCCCCN1C(C)=CS\\C1=C/C=C(/C=C/c1scc(C)[n+]1CCCCCCC)c1scc(C)[n+]1CCCCCCC", "values": [{"measurement": "LD50 at 168 h", "setting": "Acute toxicity; ip, intraperitoneal, read-out: intraperitoneal LD50 value", "result": 54, "unit": "mg/kg"}, {"measurement": "LD50 at 168 h", "setting": "Acute toxicity; oral by gastric tube, read-out: oral LD50 value", "result": 1500, "unit": "mg/kg"}, {"measurement": "Effect on blood pressure in normal rats", "setting": "[1]; male Wistar-Kyoto rats, oral, 1 µg/kg three times a week for 8 weeks, Fig. 3", "result": "no influence on blood pressure"}, {"measurement": "Effect on blood pressure in normal rats", "setting": "[1]; normal rats, dose range of 1 to 100 µg/kg", "result": "no change in blood pressure"}, {"measurement": "body weight", "setting": "[1]; [3]", "result": "no significant changes"}, {"measurement": "heart rate", "setting": "[1]; [3]", "result": "no significant changes"}, {"measurement": "acute hypotensive effect", "setting": "[2]; SHR, also at a higher dose, time for the antihypertensive effect to be revealed was the same", "result": "any acute hypotensive effect was not found"}, {"measurement": "Body weight change", "setting": "[2]; SHR, oral, 1 µg/kg three times a week, Fig. 2", "result": "no influence on body weight gain"}, {"measurement": "Effect on heart rate", "setting": "[2]; SHR, oral, 1 µg/kg three times a week, any time point during administration, compared with control group", "result": "any significant change in heart rate was not observed"}, {"measurement": "Body weight change", "setting": "[2]; SHR, oral, 1 to 100 ug/kg three times a week (not illustrated)", "result": "no effect on body weight"}, {"measurement": "antihypertensive effect", "setting": "[2]; SHR, after about 4 weeks of administration", "result": "significant decrease in blood pressure"}, {"measurement": "antihypertensive effect", "setting": "[2]; SHR, till the 3rd week of administration", "result": "no effect at all"}, {"measurement": "Effect on blood pressure", "setting": "[2]; male SHR, oral, 1 ug/kg three times a week for 13 weeks, systolic, caudal artery, each measurement time point after 5 weeks, Fig. 1", "result": "remarkable blood pressure fall"}]}
